Measurements reported in the SangsterLogP compilation.

Assay: method code SF, from Hansch, C. & Leo, A. (1987). Log P database [Dataset]. Pomona College Medicinal Chemistry Project.
Conditions: not given

| Compound | logP |
| --- | --- |
| O=C(Nc1ccc(Cl)c(Cl)c1)C1CCCC1 | 4.47 |
| N#CN/C(N)=N/c1ccccc1 | 1.05 |
| CC1(C)O[C@@H]2C[C@H]3[C@@H]4C[C@H](F)C5=CC(=O)C=C[C@]5(C)[C@@]4(F)[C@@H](O)C[C@]3(C)[C@]2(C(=O)CO)O1 | 2.48 |
| CN(C)C(=O)c1ccsc1 | 0.55 |
| O=C(O)CCl | 0.22 |
| O=C(O)c1ccco1 | 0.64 |
| CCC1(c2ccccc2)NC(=O)NC1=O (stereo not given) | 1.53 |
| NC1=Nc2cc(Cl)ccc2S(=O)(=O)N1 | 0.91 |
| FC(F)(F)c1cccc2cccnc12 | 2.5 |
| c1cc2[nH]cnc2cn1 | 0.18 |
| O=S1(=O)Nc2ccccc2N1 | 1.12 |
| O=C(O)c1ccoc1 | 1.03 |
| NC(N)=Nc1ccccc1 | 0.53 |
| O=C(O)c1ccncc1 | -0.57 |
| CC(C)(C)N | 0.4 |
| CCOP(=S)(OCC)Oc1ccc(SC)cc1Cl | 4.4 |
| Cc1csc(C=Cc2ccc([N+](=O)[O-])o2)n1 | 1.53 |
| CCCCCC(=O)Nc1ccccc1 | 3.28 |
| N#Cc1cccc(OC(=O)CNC(=O)c2ccccc2)c1 | 2.11 |
| COc1cc(C(=O)C=CN2CC=CC2)cc(OC)c1OC | 1.77 |
| COc1cccc(OC)c1OC | 1.53 |
| C/N=C/c1ccccc1 | 1.64 |
| CCC(C)NC(=O)/C(Br)=C\c1ccccc1 (stereo not given) | 3.56 |
| O=P(c1ccccc1)(c1ccccc1)c1ccccc1 | 2.85 |
| CSc1ccc(C=NN=C(N)NN)cc1 | 1.35 |
| CCOP(=O)(OCC)Oc1ccc(SC)c(C)c1 | 3.28 |
| COC(=O)CNC(=O)c1ccc([N+](=O)[O-])cc1 | 0.98 |

| Compound | logP |
| --- | --- |
| O=C(C=Cc1ccco1)c1ccco1 | 2.34 |
| CCCCCc1ccc(O)cc1 | 4.06 |
| c1ccc2c(c1)CCc1ccccc1NC2 | 2.82 |
| CCC(C)c1cnc(CC(C)C)c(=O)n1O (stereo not given) | 1.81 |
| CCc1ccccc1NC(C)=O | 1.33 |
| ClCCOCCCl | 1.29 |
| CCOC(=O)C(=Cc1ccc(Cl)cc1Cl)C(=O)OCC | 3.49 |
| O=C(NO)c1ccccc1 | 0.26 |
| N#CSc1ccccc1 | 2.54 |
| CC(C)c1ccc(C(N)=O)cc1 | 2.14 |
| COc1ccc(CN(CCN(C)C)c2ccccn2)cc1 | 2.85 |
| OC(O)(C(F)(F)F)C(F)(F)F | 1.46 |
| CC(C)(O)C(Cl)(Cl)Cl | 2.03 |
| CCOC(=O)c1ccccc1N | 2.57 |
| c1ccc(SSc2ccccc2)cc1 | 4.41 |
| CCOC(=O)CON=Cc1ccc(OCCOC(=O)CC)c(OC)c1 | 2.39 |
| CN(C(=O)CCSC#N)c1ccc(S(=O)(=O)N(C)C)cc1 | 0.84 |
| CC(=O)NNC(=O)c1ccccn1 | -0.59 |
| O=c1nccc[nH]1 | -1.62 |
| CCCCCC1(CC)C(=O)NC(=O)NC1=O | 2.24 |
| Cn1ccc(=O)c2ccccc21 | 0.44 |
| O=S1(=O)NC(c2ccccc2)=Nc2ccccc21 | 1.78 |
| O=C(O)COc1ccc(Cl)c([N+](=O)[O-])c1 | 1.85 |
| O=[N+]([O-])c1ccc(C=Cc2nc3ccccc3[nH]2)o1 | 1.4 |
| CCNC(=S)Nc1ccccc1 | 1.42 |
| Cc1ccc2[nH]c(CCCCc3nc4cc(C)ccc4[nH]3)nc2c1 | 1.64 |

Same assay, conditions: pH 1.0

| Compound | logD |
| --- | --- |
| NS(=O)(=O)c1ccc(C(=O)O)cc1 | 0.5 |
| CCCN(CCC)S(=O)(=O)c1ccc(C(=O)O)cc1 | 3.21 |

Same assay, conditions: pH 2.0

| Compound | logD |
| --- | --- |
| O=C1CC(=O)NC(=O)N1 | -1.41 |

Same assay, conditions: pH 2.2

| Compound | logD |
| --- | --- |
| CCCc1c(OCCCCc2nnn[nH]2)ccc(C(C)=O)c1O | 3.82 |

Same assay, conditions: pH 3.0

| Compound | logD |
| --- | --- |
| CC(=O)OCC1=C(C(=O)O)N2C(=O)C(NC(=O)COc3ccccc3)C2SC1 (stereo not given) | 0.26 |

Same assay, conditions: pH 7.0

| Compound | logD |
| --- | --- |
| CCOC(=O)c1ccc([N+](=O)[O-])cc1 | 2.33 |

Same assay, conditions: pH 7.4

| Compound | logD |
| --- | --- |
| CCN(CC)c1c(C)n(C)c(=O)n(-c2ccccc2)c1=O | 2.11 |

Same assay, conditions: pH 11.0

| Compound | logD |
| --- | --- |
| c1cncc([C@@H]2CCCCN2)c1 | 0.97 |
| CN(C)CCc1cccnc1 | 0.82 |

Same assay, conditions: pH 12.0

| Compound | logD |
| --- | --- |
| CN(CCO)N=Nc1ccccc1 | 1.71 |

Same assay, conditions: pH 13.0

| Compound | logD |
| --- | --- |
| C=CCN(CC=C)CC=C | 2.59 |
| CC(=O)c1cccc(N2C(N)=NC(N)=NC2(C)C)c1 | -0.22 |
